Experiments:
[1] = system: anti-17β-estradiol antibody; assay: Bioactive microarray binding profile, anti-17β-estradiol antibody; design: species or system rabbit; settings: anti-17β-estradiol then labeled secondary antibody; replicate arrays
Procedure: (§1) To investigate the suitability of our approach for printing compounds that have not been intentionally synthesized with appendages for covalent capture, more than 300 commercially available bioactive compounds were printed onto isocyanate-functionalized slides. We screened these bioactive microarrays using rabbit primary antibodies against corticosterone, digitoxin, and 17β-estradiol, followed by a fluor-labeled goat anti-rabbit secondary antibody. The signal-to-noise ratio (SNR) was determined by calculating intensity at 635 nm and adjusting for local background for each feature on replicate arrays, and data were compared to replicate control arrays incubated with the labeled secondary antibody alone (FIG. 4). […] In the anti-corticosterone antibody binding profile, hydrocortisone (mean SNR 68.9), beclomethasone (63.3), and corticosterone (59.2), corticosteroids related in structure, scored as positives. […] 17β-estradiol (mean SNR 9.0), estriol (8.7) and estrone (7.3), primary estrogenic hormones varying in the number of reactive groups for capture, scored as positives in the anti-17β-estradiol binding profile.
(§2) Small-molecule microarray profiles with antibodies against natural products. […] Arrays were dried by centrifugation and scanned for fluorescence at 635 nm. Signal-to-noise ratio was calculated for each feature using adjusted diameters.

anti-digitoxin antibody = assay: Bioactive microarray binding profile, anti-digitoxin antibody; design: species or system rabbit; settings: anti-digitoxin then labeled secondary antibody; replicate arrays
Procedure: We screened these bioactive microarrays using rabbit primary antibodies against corticosterone, digitoxin, and 17β-estradiol, followed by a fluor-labeled goat anti-rabbit secondary antibody. The signal-to-noise ratio (SNR) was determined by calculating intensity at 635 nm and adjusting for local background for each feature on replicate arrays, and data were compared to replicate control arrays incubated with the labeled secondary antibody alone (FIG. 4).
Microarrays printed with natural products and bioactives were incubated with various antibodies to detect specific compounds. In the first incubation step, arrays were incubated with 300 μL of one of the following: PBST buffer (control), a 1:500 solution of rabbit anti-corticosterone whole antiserum in PBST, 1:500 solution of rabbit anti-17β-estradiol whole antiserum in PBST for 30 min at room temperature. The arrays were briefly rinsed with PBST and then washed twice in PBST. All arrays were then incubated with 300 μL of a 1:1000 solution of Alexa Fluor® 647 […] polyclonal secondary antibody in PBST for 30 min at room temperature. Probed arrays were rinsed in PBST, washed three times in PBST, and washed once in PBS. Arrays were dried by centrifugation and scanned for fluorescence at 635 nm. Signal-to-noise ratio was calculated for each feature using adjusted diameters.

[2] = system: Alexa Fluor 647 goat-anti-rabbit IgG; assay: Bioactive microarray control, labeled secondary antibody alone; format: binding; settings: labeled polyclonal secondary antibody alone
Procedure: as §1, §2

[3] = system: anti-corticosterone antibody; assay: Bioactive microarray binding profile, anti-corticosterone antibody; settings: anti-corticosterone then Alexa Fluor 647 goat-anti-rabbit; replicate arrays
Procedure: as §1, with “4). Six bioactives, with signal-to-noise ratios>3.0, were found in replicate arrays to bind to the labeled polyclonal secondary antibody alone. None of the compounds were autofluorescent at 635 nm as judged by arrays probed with PBS buffer alone (data not shown). Hygromycin B, an aminoglycoside antibiotic, gave the highest adjusted signal-to-noise ratio (mean SNR 47.6).” for “4).”
as §2, with “products. Microarrays printed with natural products and bioactives were incubated with various antibodies to detect specific compounds.” for “products.”

FKBP12-6xHis = target: T1, FKBP12-6xHis (Homo sapiens, UniProt P62942); settings: Table 1; cited from earlier work
T1 construct: made in house
T1 sequence (P62942 whole entry): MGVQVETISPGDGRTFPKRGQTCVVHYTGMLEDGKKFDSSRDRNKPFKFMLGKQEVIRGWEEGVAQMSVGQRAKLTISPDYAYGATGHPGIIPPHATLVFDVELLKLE

FKBP12 = FKBP12 (Homo sapiens, UniProt P62942); settings: affinity of AP1497 for FKBP12; cited from earlier work
Chain of FKBP12 (P62942 whole entry, species assumed): as the sequence (P62942 whole entry) above

## C[C@]12CC[C@@H]3c4ccc(O)cc4CC[C@H]3[C@@H]1CC[C@@H]2O [17β-estradiol]
[1]
  mean SNR (signal-to-noise ratio at 635 nm): 9.0

## C[C@]12CC[C@H](O)C[C@H]1CC[C@@H]1[C@@H]2CC[C@]2(C)[C@@H](C3=CC(=O)OC3)[C@@H](O)C[C@]12O [Gitoxigenin]
anti-digitoxin antibody
  mean SNR (signal-to-noise ratio at 635 nm): 62.5

## CN[C@H]1C[C@@H](N)[C@H](O)[C@@H](O[C@@H]2O[C@H](CO)[C@H](O)[C@@H]3OC4(O[C@H]23)O[C@H]([C@@H](N)CO)[C@H](O)[C@H](O)[C@H]4O)[C@@H]1O (stereo partly drawn) [Hygromycin B]
[2]
  adjusted signal-to-noise ratio (mean SNR): 47.6

## C[C@H]1C[C@H]2[C@@H]3CCC4=CC(=O)C=C[C@]4(C)[C@@]3(Cl)[C@@H](O)C[C@]2(C)[C@@]1(O)C(=O)CO [beclomethasone]
[3]
  mean SNR (signal-to-noise ratio at 635 nm): 63.3

## C[C@@H]1O[C@@H](O[C@H]2CC[C@]3(C=O)[C@H]4CC[C@]5(C)[C@@H](C6=CC(=O)OC6)CC[C@]5(O)[C@@H]4CC[C@]3(O)C2)[C@H](O)[C@H](O)[C@H]1O [convallatoxin]
anti-digitoxin antibody
  mean SNR (signal-to-noise ratio at 635 nm): 52.7

## C[C@]12C[C@H](O)[C@H]3[C@@H](CCC4=CC(=O)CC[C@@]43C)[C@@H]1CC[C@@H]2C(=O)CO [corticosterone]
[3]
  mean SNR (signal-to-noise ratio at 635 nm): 59.2

## C[C@H]1O[C@@H](O[C@H]2[C@@H](O)C[C@H](O[C@H]3[C@@H](O)C[C@H](O[C@H]4CC[C@@]5(C)[C@H](CC[C@@H]6[C@@H]5CC[C@]5(C)[C@@H](C7=CC(=O)OC7)CC[C@]65O)C4)O[C@@H]3C)O[C@@H]2C)C[C@H](O)[C@@H]1O [digitoxin]
anti-digitoxin antibody
  mean SNR (signal-to-noise ratio at 635 nm): 15.1

## C[C@]12CC[C@@H]3c4ccc(O)cc4CC[C@H]3[C@@H]1C[C@@H](O)[C@@H]2O [estriol]
[1]
  mean SNR (signal-to-noise ratio at 635 nm): 8.7

## C[C@]12CCC(=O)C=C1CC[C@@H]1[C@@H]2[C@@H](O)C[C@@]2(C)[C@H]1CC[C@]2(O)C(=O)CO [hydrocortisone]
[3]
  mean SNR (signal-to-noise ratio at 635 nm): 68.9

## CC(=O)O[C@H]1C[C@H](O[C@H]2[C@@H](O)C[C@H](O[C@H]3[C@@H](O)C[C@H](O[C@H]4CC[C@@]5(C)[C@H](CC[C@@H]6[C@@H]5C[C@@H](O)[C@]5(C)[C@@H](C7=CC(=O)OC7)CC[C@]65O)C4)O[C@@H]3C)O[C@@H]2C)O[C@H](C)[C@H]1O[C@@H]1O[C@H](CO)[C@@H](O)[C@H](O)[C@H]1O [lanatoside C]
anti-digitoxin antibody
  mean SNR (signal-to-noise ratio at 635 nm): 24.0

## AP1497
FKBP12-6xHis
  Kd: 0.018 µM
FKBP12
  Kd: 0.0088 µM

From US20090221433A1, “SMALL MOLECULE PRINTING” (priority 2006, published 2009)
